Test results published in paper PMC7395068, “The evolution of strategies to minimise the risk of human drug-induced liver injury (DILI) in drug discovery and development” (Archives of Toxicology, 2020).
Like-named read-outs stand apart in the source and are kept apart here.

How the values were obtained:
[1] = cited from earlier work
HepG2 cells [2] = conditions: cited from earlier work
HepG2 cells [3] = conditions: cited from earlier work; remark: listed apart in the source
human hepatocytes = conditions: cited from earlier work
[4] = system: THLE or HepG2 cells, isolated mitochondria, BSEP; conditions: cited from earlier work
[5] = system: HepG2 C3A spheroid, BSEP, Glu/Gal in HepG2 cells, bioactivation; conditions: cited from earlier work
[6] = cited from earlier work; remark: listed apart in the source
hu-MPCC = conditions: cited from earlier work
RMPCC's = conditions: cited from earlier work
[7] = Plasma free fraction (fu) and unbound Cmax (Cmax,u); format: in vitro ADME, human; conditions: human
Method: The prediction of DILI severity was evaluated further using the 3D combined HCI assays using plasma-free fraction. The majority of fu values were obtained from literature, when unavailable in-house prediction was utilised. Unbound plasma Cmax concentrations (Cmax,u) were derived by multiplying total plasma Cmax with the corresponding free fraction (fu) for each compound.

hLiMTs [8] = system: hLiMTs
HepaRG spheroids [9] = system: HepaRG spheroids
Method: (§1) 3D spheroid models consisting of either primary human hepatocytes with non-parenchymal cells (hLiMT’s) or HepaRG cells (HepaRG spheroids) were assessed for size (MS), oxidative stress (OS), MMP, mitochondrial mass (MM), GSH and cellular ATP content following drug exposure. Fluorescent images are acquired using the confocal mode of an ArrayScan™ XTI HCI reader (ThermoScientific) following which cellular ATP was measured using 3D CellTiter-Glo (Promega).

[10] = system: primary human hepatocytes, NIH3T3 fibroblasts, BSEP, CYP3A4; conditions: cited from earlier work
PHH [11] = conditions: cited from earlier work
hLiMTs [12] = conditions: cited from earlier work
[13] = human, in vivo; cited from earlier work
[14] = cited from earlier work; remark: listed apart in the source
hLiMTs [15] = test: Combined HCI (HCS) and cellular ATP 3D assay in hLiMTs; conditions: Homo sapiens
HepaRG spheroids [16] = test: Combined HCI (HCS) and cellular ATP 3D assay in HepaRG spheroids; conditions: Homo sapiens, HepaRG
Method: as §1

HepG2 cells [17] = conditions: cited from earlier work; remark: listed apart in the source
PHH spheroids = conditions: In vitro Assay; ref Vorrink 2018; cited from earlier work
[18] = system: HepG2 cells, primary human hepatocytes; conditions: cited from earlier work
[19] = system: isolated mouse liver mitochondria; conditions: In vitro Assay; ref Porceddu 2012; cited from earlier work
HepG2 = system: HepG2; design: method as in Albrecht 2019; conditions: In vitro Assay; ref Albrecht 2019; cited from earlier work
PHH [20] = conditions: In vitro Assay; ref Albrecht 2019; cited from earlier work
[21] = In vitro Assay, ref Schadt 2015
[22] = In vitro Assay, ref O'Brien 2006
[23] = In vitro Assay, ref Proctor 2017
[24] = In vitro Assay, ref Khetani 2012

C[C@H](CS)C(=O)N1CCC[C@H]1C(=O)O [captopril]
DILI +VE (5-8), DILI -VE (-4) ([1]; in vivo): +VE | DILI severity category ([1]; in vivo): vLess-DILI-Concern | Structural based (HCI) (HepG2 cells [2]): +VE | Structural based (HCI) (HepG2 cells [3]): +VE | Structural based (HCI) (human hepatocytes): -VE | Ro2 Hybrid HRM Score [4]: -VE | Bayesian Machine Learning [5]: +VE | In vivo DILI ([6]; in vivo): +VE | HMPCC's (hu-MPCC): -VE | RMPCC's (RMPCC's): -VE

O=P1(N(CCCl)CCCl)NCCCO1 (stereo not shown) [cyclophosphamide, reference compound]
Human plasma Cmax,u [7]: 114.400 µM | DILI prediction hLiMTs (HCS-MEC) (hLiMTs [8]): +VE (key: +VE: MEC < 25 × Cmax.tot cut-off) | hLiMTs <10 uM All (hLiMTs [8]): -ve | hLiMTs <100x Avg Cmaxu ATP (hLiMTs [8]; human): +ve (key: +ve: <100x Avg Cmaxu) | hLiMTs <100x Avg Cmaxu All (hLiMTs [8]; human): +ve (key: +ve: <100x Avg Cmaxu) | hLiMTs <100x Avg Cmaxu HCS (hLiMTs [8]; human): +ve (key: +ve: <100x Avg Cmaxu) | hLiMTs Cmax max All (hLiMTs [8]; human): +ve | hLiMTs Cmax min All (hLiMTs [8]; human): -ve | DILI prediction HepaRG spheroids (HCS-MEC) (HepaRG spheroids [9]): +VE (key: +VE: MEC < 25 × Cmax.tot cut-off) | HepaRG <10 uM All (HepaRG spheroids [9]): -ve | HepaRG <100x Avg Cmaxu ATP (HepaRG spheroids [9]; human): +ve (key: +ve: <100x Avg Cmaxu) | HepaRG <100x Avg Cmaxu All (HepaRG spheroids [9]; human): +ve (key: +ve: <100x Avg Cmaxu) | HepaRG <100x Avg Cmaxu HCS (HepaRG spheroids [9]; human): +ve (key: +ve: <100x Avg Cmaxu) | HepaRG Cmax max All (HepaRG spheroids [9]; human): +ve | HepaRG Cmax min All (HepaRG spheroids [9]; human): -ve | DILI +VE (5-8), DILI -VE (-4) ([1]; in vivo): +VE | DILI severity category (Chen et al. [2016]) ([1]; in vivo): Less | Cellular toxicity (3T3 cells) [10]: -VE | DILI in vitro assay prediction, Schadt (2015) [10]: -VE | GSH adduct HML [10]: -VE | Hepatocyte cellular toxicity [10]: -VE | MitoTox 3T3 [10]: -VE | TDI CYP3A4 [10]: -VE | hBSEP inhibition [10]: -VE | DILI in vitro assay prediction, O'Brien (2006) (HepG2 cells [2]): +VE (key: +VE: lowest HCI endpoint IC50 (or in the absence of dose–response < 100 µM) < 30 × total human plasma exposure levels (Cmax.tot)) | Structural based (HCI) (HepG2 cells [2]): +VE | DILI in vitro assay prediction, Tolosa (2012) (HepG2 cells [3]): -VE | Structural based (HCI) (HepG2 cells [3]): +VE | DILI in vitro assay prediction, Xu (2008) (human hepatocytes): -VE | Structural based (HCI) (human hepatocytes): -VE | Partition Hybrid HRM Score [4]: -VE | Partition Hybrid HRM Score ≥4, Aleo (2019) [4]: -VE | Partition Hybrid HRM Score ≥8, Aleo (2019) [4]: -VE | Ro2 Hybrid HRM Score [4]: -VE | Rule of Two hybrid HRM Score ≥3, Aleo (2019) [4]: -VE | Rule of Two hybrid HRM Score ≥8, Aleo (2019) [4]: -VE | PHH ATP <100uM (PHH [11]): -VE | PHH/100uM, Proctor (2017) (PHH [11]): -VE | hLiMTs ATP <100uM (hLiMTs [12]): -VE | hLiMTs/100uM, Proctor (2017) (hLiMTs [12]): -VE | Cmax [13]: 143 µM | Assigned DILI category ([6]; in vivo): 2 | HMPCC's (hu-MPCC): +VE | DILI Score (FDA) (1-8) ([14]; in vivo): 5 | RMPCC's (RMPCC's): +VE | AC50 (hLiMTs [15]; read-out: ATP endpoint AC50): 906 µM | minimal effective concentration (hLiMTs [15]; read-out: ATP endpoint MEC): 613 µM | AC50 (hLiMTs [15]; read-out: HCS endpoint AC50): 992 µM | minimal effective concentration (hLiMTs [15]; read-out: HCS endpoint MEC): 236 µM | AC50 (HepaRG spheroids [16]; read-out: ATP endpoint AC50): 419 µM | minimal effective concentration (HepaRG spheroids [16]; read-out: ATP endpoint MEC): 229 µM | AC50 (HepaRG spheroids [16]; read-out: HCS endpoint AC50): 1860 µM | minimal effective concentration (HepaRG spheroids [16]; read-out: HCS endpoint MEC): 340 µM

CNCCC(Oc1ccc(C(F)(F)F)cc1)c1ccccc1 (stereo not shown) [fluoxetine]
DILI +VE (5-8), DILI -VE (-4) ([1]; ref Chen 2016): +VE | DILI severity category ([1]; ref Chen 2016): vLess-DILI-Concern | Cellular toxicity (3T3 cells) [10, 21]: +VE | Combined Assay [10, 21]: -VE | GSH adduct HML [10, 21]: -VE | Hepatocyte cellular toxicity [10, 21]: -VE | MitoTox 3T3 [10, 21]: -VE | TDI CYP3A4 [10, 21]: -VE | hBSEP inhibition [10, 21]: -VE | Cluser analysis (HepG2 cells [17]): +VE | Structural based (HCI) (human hepatocytes): -VE | PHH ATP <100uM (PHH [11]): -VE | hLiMTs ATP <100uM (hLiMTs [12]): +VE (key: +VE: IC50 threshold of 100 µM) | hLiMTs ATP <20 x Cmax (PHH spheroids): -VE | Bayesian Machine Learning [5]: +VE | In vivo DILI ([6]; […]): -VE | In vivo DILI ([6]; ref Aleo 2019): +VE | In vivo DILI ([6]; ref Garside 2014): +VE | In vivo DILI ([6]; ref Khetani 2012): -VE | In vivo DILI ([6]; ref Persson 2013): +VE | In vivo DILI ([6]; ref Proctor 2017): +VE | In vivo DILI ([6]; ref Schadt 2015): -VE | In vivo DILI ([6]; ref Tolosa 2012): +VE | In vivo DILI ([6]; ref Vorrink 2018): -VE | In vivo DILI ([6]; ref Williams 2019): +VE | In vivo DILI ([6]; ref Xu 2008): -VE | HMPCC's (hu-MPCC): -VE | Cluster 1-6 +VE Assay [18]: +VE | DILI Score (FDA) (1-8) ([14]; ref Chen 2011): 3 | RMPCC's (RMPCC's): -VE

CN(C)CCCN1c2ccccc2CCc2ccccc21 [imipramine]
DILI +VE (5-8), DILI -VE (-4) ([1]; ref Chen 2016): +VE | DILI severity category ([1]; ref Chen 2016): vLess-DILI-Concern | Structural based (HCI) (HepG2 cells [2]; [22]): +VE | Structural based (HCI) (HepG2 cells [17]; In vitro Assay, ref Persson 2013): +VE | Structural based (HCI) (HepG2 cells [3]; In vitro Assay, ref Tolosa 2012): +VE | Ro2 Hybrid HRM Score ([4]; In vitro Assay, ref Aleo 2019): +VE | PHH ATP <100uM (PHH [11]; [23]): +VE (IC50 threshold of 100 µM) | hLiMTs ATP <100uM (hLiMTs [12]; [23]): +VE (IC50 threshold of 100 µM) | hLiMTs ATP <20 x Cmax (PHH spheroids): +VE (IC20 < 20 × Cmax.tot cut-off) | Bayesian Machine Learning ([5]; In vitro Assay, ref Williams 2019): +VE | In vivo DILI ([6]; […]): +VE | In vivo DILI ([6]; ref Aleo 2019): +VE | In vivo DILI ([6]; ref Garside 2014): +VE | In vivo DILI ([6]; ref Khetani 2012): +VE | In vivo DILI ([6]; ref O'Brien 2006): +VE | In vivo DILI ([6]; ref Persson 2013): +VE | In vivo DILI ([6]; ref Porceddu 2012): +VE | In vivo DILI ([6]; ref Proctor 2017): +VE | In vivo DILI ([6]; ref Schadt 2015): -VE | In vivo DILI ([6]; ref Tolosa 2012): +VE | In vivo DILI ([6]; ref Vorrink 2018): +VE | In vivo DILI ([6]; ref Williams 2019): +VE | In vivo DILI ([6]; ref Xu 2008): +VE | HMPCC's (hu-MPCC; [24]): +VE | in vitro data EC2<=1x Cmax [19]: -VE | in vitro data EC20<=2uM [19]: +VE | RMPCC's (RMPCC's; [24]): -VE

CCCCC1C(=O)N(c2ccccc2)N(c2ccccc2)C1=O [phenylbutazone]
Cytotoxicity HepG2 48 hrs (HepG2): +VE | Structural based (HCI) (HepG2 cells [2]; [22]): +VE | In vivo DILI ([6]; in vivo): +VE | Cytotoxicity PHH 48 hrs (PHH [20]): +VE | HMPCC's (hu-MPCC; [24]): +VE | in vitro data EC2<=1x Cmax [19]: +VE | RMPCC's (RMPCC's; [24]): +VE
